Results taken from patent US20230247992A1, “ARTHROPOD CONTROL COMPOSITION” (Firmenich SA, priority 2020, published 2023).
Like-named read-outs stand apart in the source and are kept apart here.

What was measured:
Format in all cases: in vivo
[1] = system: Ixodes ricinus; experiment: whole plant or invertebrate
[2] = system: Aedes aegypti; experiment: in vitro Warm Body assay, substance introduced in the cage air by forced evaporation (spatial repellence)
Experimental: (§1) The controlling effect, repellence & spatial repellence, according to the present invention is determined by testing the Warm Body assay against the yellow fever mosquito, Aedes aegypti Rockefeller strain. […] Observations of controlling efficacy were made on host-seeking females of uniform age, 5 to 10 days old selected as mentioned in the publication mentioned hereinabove. Tested hungry females had access to 10% sugar solution but were not blood-fed. Further information is provided in the accompanying examples.
(§2) The published protocol has been adapted in not manually counting the landing mosquitoes but automatically using an automatic counting software, the switch from Anopheles gambiae to A. aegypti led to a decrease of mosquitoes’ number placed in the tested cage due to the size difference (i.e. 30 mosquitoes instead of 50) and to an increase of lighting as A. aegypti is a diurnal mosquitoes (i.e. 150 lux instead of 4 lux). Further information is provided in the accompanying examples.,
(§3) The controlling effect of the compositions according to the present invention was assessed using an adapted Warm Body assay as defined in Kröber T, Kessler S, Frei J, Bourquin M, Guerin PM. 2010. An in vitro assay for testing mosquito controlling compounds employing a warm body and carbon dioxide as a behavioral activator. J Am Mosq Control Assoc. 26:381-386. In this in-vitro assay the number of mosquito landing on a warm body, simulating an attractive host treated with the tested stimuli, was measured in order to assess the repellence effect.
as §2, with “to Aedes” for “to A.”, “lux).” for “lux). Further information is provided in the accompanying examples.,”
(§4) In addition, since the inventors were interested by assessing spatial repellence added or not to a deterrent effect, the substance was applied using two different technics. Whether, as in Kröber et al. (2010), both deterrent and repellent effect were investigated (i.e. similar effect than most body care applications such as lotion) and the substances was applied on a sandblasted glass Petri dish placed on top of the warm body. Whether only the spatial repellence was investigated (i.e. similar effect than most home care applications such as liquid electric dispenser) and the substance was introduced in the cage space thanks to a forced evaporation system as described in Chappuis C J-F, Niclass Y, Vuilleumier C, Starkenmann C. 2015. Quantitative Headspace Analysis of Selected Odorants from Latrines in Africa and India. Environ. Sci. Technol. 49:6134-6140.
(§5) As stated in Kröber et al. (2010), selected 10-12 days old hungry females, that had ad libitum access to 10% sugar solution but were not blood-fed, were selected for the assay.
The forced evaporation system allows to fill the volume of the cage with stimuli tested, (2-methyl-4-oxo-3-prop-2-ynylcyclopent-2-en-1-yl) 2,2-dimethyl-3-(2-methylprop-1-enyl)cyclopropane-1-carboxylate (prallethrin) and N,N-diethyl-3-methylbenzamide (DEET) being used as benchmarks. In order to limit potential dead volumes in the cage, five flushes of the cage were made before starting the 2 minutes test during which the number of mosquito landings was counted.

[3] = system: Aedes aegypti; experiment: in vitro Warm Body assay, substance applied on glass Petri dish on top of the warm body (deterrence and repellence)
Experimental: as §1, §2, §3
as §2, with “to Aedes” for “to A.”, “lux).” for “lux). Further information is provided in the accompanying examples.,”
as §4, §5
On the sandblasted glass Petri dish covering the warm body (28.3 cm^2), 100 µL of the substances diluted at different concentrations in ethanol was applied. The number of mosquito landing on the warm body was counted for each stimuli, N,N-diethyl-3-methylbenzamide (DEET) and ethyl 3-[acetyl(butyl)amino]propanoate (IR3535) being used as benchmarks and pure ethanol as control.

[4] = Ixodes ricinus, read-out: mean percentage of ticks affected
[5] = 0.04% in ethanol, ethanol control 67.0±8.8 landings
[6] = 1% in ethanol, ethanol control 67.0±8.8 landings
[7] = […] in ethanol, ethanol control 67.0±8.8 landings

`C/C=C/c1ccc(O)c(OC)c1` [2-methoxy-4-[(E)-prop-1-enyl]phenol] gave a pest or weed control at 1 µg/cm2, 1 µg/cm2 [1, 4] of 8%, a pest or weed control at 5 µg/cm2, 5 µg/cm2 [1, 4] of 67% and a pest or weed control at 25 µg/cm2, 25 µg/cm2 [1, 4] of 83%. For the same compound, the “number of mosquitoes landing within 2 minutes on the warm body, air in the cage saturated with stimulus” value (shortened to “number … with stimulus”) ([2]; 0.017 µg/L air, without substance 54.1±4.9) was 12.0, the “number … with stimulus” value ([2]; 0.17 µg/L air, without substance 54.1±4.9) was 4.0 and the “number … with stimulus” value ([2]; 1.7 µg/L air, without substance 54.1±4.9) was 11.0. The “number of mosquitoes landing within 2 minutes on the warm body” value [3, 5] was 14.0, the “number of mosquitoes landing within 2 minutes on the warm body” value [3, 6] was 0.0 and the “number of mosquitoes landing within 2 minutes on the warm body” value [3, 7] was 57.0. For the same compound, the landings per minute ([3]; concentration of 0.04%) was ~ 10 landings per minute.
`CC(C=O)Cc1ccc(C(C)C)cc1` (stereo not shown) [2-methyl-3-(4-propan-2-ylphenyl)propanal] gave a pest or weed control at 1 µg/cm2, 1 µg/cm2 ([1]; Ixodes ricinus, 1 µg/cm^2, diluted in ethanol, ethanol control 1.0±1.2%, read-out: mean percentage of ticks affected) of 7%, a pest or weed control at 5 µg/cm2, 5 µg/cm2 ([1]; Ixodes ricinus, 5 µg/cm^2, diluted in ethanol, ethanol control 1.0±1.2%, read-out: mean percentage of ticks affected) of 46% and a pest or weed control at 25 µg/cm2, 25 µg/cm2 ([1]; Ixodes ricinus, 25 µg/cm^2, diluted in ethanol, ethanol control 1.0±1.2%, read-out: mean percentage of ticks affected) of 85%. For the same compound, the “number … with stimulus” value ([2]; 0.0017 µg/L air, without substance 54.7±3.2) was 26.3, the “number … with stimulus” value ([2]; 0.017 µg/L air, without substance 54.7±3.2) was 21.3 and the “number … with stimulus” value ([2]; 0.17 µg/L air, without substance 54.7±3.2) was 7.8. For the same compound, the “number … with stimulus” value ([2]; 1.7 µg/L air, without substance 54.7±3.2) was 5.0, the “number … with stimulus” value ([2]; 17 µg/L air, without substance 54.7±3.2) was 7.5 and the “number of mosquitoes landing within 2 minutes on the warm body” value ([3]; 0.04% in ethanol, ethanol control 59.3±6.9 landings) was 20.0. For the same compound, the “number of mosquitoes landing within 2 minutes on the warm body” value ([3]; 1% in ethanol, ethanol control 59.3±6.9 landings) was 1.0 and the “number of mosquitoes landing within 2 minutes on the warm body” value ([3]; […] in ethanol, ethanol control 59.3±6.9 landings) was 49.0.
In the case of `O=C1CCC2CCCCC2O1` (stereo not shown) [3,4,4a,5,6,7,8,8a-octahydrochromen-2-one], the pest or weed control at 0.04 µg/cm2, 0.04 µg/cm2 ([1]; Ixodes ricinus, 0.04 µg/cm^2, diluted in ethanol, ethanol control 0.6±0.5%, read-out: mean percentage of ticks affected) is reported as 33%, the pest or weed control at 1 µg/cm2, 1 µg/cm2 ([1]; Ixodes ricinus, 1 µg/cm^2, diluted in ethanol, ethanol control 0.6±0.5%, read-out: mean percentage of ticks affected) is reported as 17% and the pest or weed control at 25 µg/cm2, 25 µg/cm2 ([1]; Ixodes ricinus, 25 µg/cm^2, diluted in ethanol, ethanol control 0.6±0.5%, read-out: mean percentage of ticks affected) is reported as 92%. The “number of mosquitoes landing within 2 minutes on the warm body” value [3, 5] was 7.0, the “number of mosquitoes landing within 2 minutes on the warm body” value [3, 6] was 0.0 and the “number of mosquitoes landing within 2 minutes on the warm body” value [3, 7] was 45.0.
In the case of `C=Cc1ccc(O)c(OC)c1` [4-ethenyl-2-methoxyphenol], the pest or weed control at 1 µg/cm2, 1 µg/cm2 [1, 4] is reported as 17%, the pest or weed control at 5 µg/cm2, 5 µg/cm2 [1, 4] is reported as 46% and the pest or weed control at 25 µg/cm2, 25 µg/cm2 [1, 4] is reported as 100%. For the same compound, the “ticks prevented from climbing up in search of a feeding site” value ([1]; highest concentration of 1% (25 µg/cm^2)) was “all tested ticks”, the “number … with stimulus” value ([2]; 0.0017 µg/L air, without substance 56.0±3.6) was 11.0 and the “number … with stimulus” value ([2]; 0.017 µg/L air, without substance 56.0±3.6) was 15.0. For the same compound, the “number … with stimulus” value ([2]; 0.17 µg/L air, without substance 56.0±3.6) was 0.0, the “number … with stimulus” value ([2]; 1.7 µg/L air, without substance 56.0±3.6) was 3.0 and the “number … with stimulus” value ([2]; 17 µg/L air, without substance 56.0±3.6) was 2.0. The “landings in 2 minutes” value ([2]; dose of 0.17 µg/L of air) was “less than five”, the “number of mosquitoes landing within 2 minutes on the warm body” value ([3]; 0.04% in ethanol, ethanol control 67.1±9.1 landings) was 5.0 and the “number of mosquitoes landing within 2 minutes on the warm body” value ([3]; 1% in ethanol, ethanol control 67.1±9.1 landings) was 0.0. For the same compound, the “number of mosquitoes landing within 2 minutes on the warm body” value ([3]; […] in ethanol, ethanol control 67.1±9.1 landings) was 36.0.
